Measured values as given in BindingDB's records for doi:10.1007/s002109900044 (Universitat Wurzburg, 1999).

How the values were obtained:
Adenosine receptor A1 = target: T1, Adenosine receptor A1 (Homo sapiens, UniProt P30542)
T1 sequence (P30542 whole entry): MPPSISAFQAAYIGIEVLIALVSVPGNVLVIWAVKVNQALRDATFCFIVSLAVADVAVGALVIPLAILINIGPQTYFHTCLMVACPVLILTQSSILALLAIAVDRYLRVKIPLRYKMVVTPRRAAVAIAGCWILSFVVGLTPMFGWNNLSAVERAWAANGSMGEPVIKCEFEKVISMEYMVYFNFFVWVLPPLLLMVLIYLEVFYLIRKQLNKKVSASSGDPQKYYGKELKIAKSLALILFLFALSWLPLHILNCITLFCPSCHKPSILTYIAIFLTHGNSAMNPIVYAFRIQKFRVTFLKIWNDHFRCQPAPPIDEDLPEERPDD

Adenosine receptor A2a = Adenosine receptor A2a (Homo sapiens, UniProt P29274)
Sequence of Adenosine receptor A2a (P29274 whole entry): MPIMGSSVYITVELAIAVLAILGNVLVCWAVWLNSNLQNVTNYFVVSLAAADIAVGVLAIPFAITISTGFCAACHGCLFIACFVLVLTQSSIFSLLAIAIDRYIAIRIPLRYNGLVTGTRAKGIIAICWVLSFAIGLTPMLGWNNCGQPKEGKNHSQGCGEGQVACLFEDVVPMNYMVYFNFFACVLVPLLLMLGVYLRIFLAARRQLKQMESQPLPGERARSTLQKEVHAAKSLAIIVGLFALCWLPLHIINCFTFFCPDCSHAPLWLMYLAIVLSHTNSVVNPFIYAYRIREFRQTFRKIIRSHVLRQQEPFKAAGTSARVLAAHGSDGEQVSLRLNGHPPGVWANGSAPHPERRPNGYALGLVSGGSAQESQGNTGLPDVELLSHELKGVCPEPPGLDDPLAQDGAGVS

Adenosine receptor A3 = target: T2, Adenosine receptor A3 (Homo sapiens, UniProt P0DMS8)
T2 sequence (P0DMS8 whole entry): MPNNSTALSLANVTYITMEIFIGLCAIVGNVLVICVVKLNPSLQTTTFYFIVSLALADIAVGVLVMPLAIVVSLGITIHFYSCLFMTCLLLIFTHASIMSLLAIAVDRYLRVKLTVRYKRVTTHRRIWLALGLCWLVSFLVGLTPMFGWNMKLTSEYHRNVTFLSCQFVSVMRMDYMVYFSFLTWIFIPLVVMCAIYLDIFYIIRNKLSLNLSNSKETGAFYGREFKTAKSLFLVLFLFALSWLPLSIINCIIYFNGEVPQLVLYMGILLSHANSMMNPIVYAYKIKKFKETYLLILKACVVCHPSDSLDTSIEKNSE

SMILES	Ki (Adenosine receptor A1)	Ki (Adenosine receptor A2a)	Ki (Adenosine receptor A3)
CCNC(=O)C1OC(n2cnc3c(N)nc(C#CCOc4ccccc4)nc32)C(O)C1O (stereo not given) [2-substituted NECA derivatives, 8]	8 nM	180 nM	14 nM
CCNC(=O)C1OC(n2cnc3c(N)nc(C#Cc4ccc(CCC(=O)O)cc4)nc32)C(O)C1O (stereo not given) [3-{4-[6-Amino-9-(5-ethylcarbamoyl-3,4-dihydroxy-tetrahydro-furan-2-yl)-9H-purin-2-ylethynyl]-phenyl}-propionic acid]	1000 nM	2200 nM	42 nM
CCNC(=O)C1OC(n2cnc3c(N)nc(C#CC4=CCCCC4)nc32)C(O)C1O (stereo not given) [5-(6-Amino-2-cyclohex-1-enylethynyl-purin-9-yl)-3,4-dihydroxy-tetrahydro-furan-2-carboxylic acid ethylamide]	87 nM	100 nM	28 nM
CCNC(=O)C1OC(n2cnc3c(N)nc(C#Cc4ccccc4)nc32)C(O)C1O (stereo not given) [5-(6-Amino-2-phenylethynyl-purin-9-yl)-3,4-dihydroxy-tetrahydro-furan-2-carboxylic acid ethylamide]	560 nM	620 nM	6.2 nM
CCNC(=O)C1OC(n2cnc3c(N)nc(C#CCC(C)O)nc32)C(O)C1O (stereo not given) [5-[6-Amino-2-(4-hydroxy-pent-1-ynyl)-purin-9-yl]-3,4-dihydroxy-tetrahydro-furan-2-carboxylic acid ethylamide]	40 nM	14 nM	4.1 nM
CCNC(=O)C1OC(n2cnc3c(N)nc(C#CCCCC#N)nc32)C(O)C1O (stereo not given) [5-[6-Amino-2-(5-cyano-pent-1-ynyl)-purin-9-yl]-3,4-dihydroxy-tetrahydro-furan-2-carboxylic acid ethylamide]	38 nM	25 nM	4.7 nM
CCNC(=O)C1OC(n2cnc3c(N)nc(C#CCCCc4ccccc4)nc32)C(O)C1O (stereo not given) [5-[6-Amino-2-(5-phenyl-pent-1-ynyl)-purin-9-yl]-3,4-dihydroxy-tetrahydro-furan-2-carboxylic acid ethylamide]	180 nM		27 nM
CCNC(=O)C1OC(n2cnc3c(N)nc(C#Cc4ccc(C(N)=O)cc4)nc32)C(O)C1O (stereo not given) [5-{6-amino-2-[2-(4-carbamoylphenyl)ethynyl]-9H-purin-9-yl}-N-ethyl-3,4-dihydroxyoxolane-2-carboxamide]	200 nM	470 nM	9.3 nM
CCNC(=O)C1OC(n2cnc3c(N)nc(C#Cc4ccco4)nc32)C(O)C1O (stereo not given) [5-{6-amino-2-[2-(furan-2-yl)ethynyl]-9H-purin-9-yl}-N-ethyl-3,4-dihydroxyoxolane-2-carboxamide]	140 nM	510 nM	12 nM
CCNC(=O)[C@H]1O[C@@H](n2cnc3c(N)nc(C#C[C@@H](O)c4ccccc4)nc32)[C@H](O)[C@@H]1O [6R, (R)-PHPNECA]	1.9 nM	39 nM	5.5 nM

Compounds with a lower Ki (Adenosine receptor A3), results first:

Ki (Adenosine receptor A1)	Ki (Adenosine receptor A2a)	Ki (Adenosine receptor A3)	SMILES
12 nM		3.7 nM	CCNC(=O)C1OC(n2cnc3c(N)nc(C#Cc4nccs4)nc32)C(O)C1O (stereo not given) [5-(6-Amino-2-thiazol-2-ylethynyl-purin-9-yl)-3,4-dihydroxy-tetrahydro-furan-2-carboxylic acid ethylamide]
9.4 nM	56 nM	2.4 nM	CCNC(=O)C1OC(n2cnc3c(N)nc(C#CC(C)(O)c4ccccc4)nc32)C(O)C1O (stereo not given) [5-[6-Amino-2-(3-hydroxy-3-phenyl-but-1-ynyl)-purin-9-yl]-3,4-dihydroxy-tetrahydro-furan-2-carboxylic acid ethylamide]
	6.4 nM	2.4 nM	CCCCC#Cc1nc(N)c2ncn([C@@H]3O[C@H](C(=O)NCC)[C@H](O)C3O)c2n1 (stereo partly drawn) [(2S,3R,5R)-5-[6-amino-2-(hex-1-yn-1-yl)-9H-purin-9-yl]-N-ethyl-3,4-dihydroxyoxolane-2-carboxamide]
3.3 nM	14 nM	1.5 nM	CCNC(=O)C1OC(n2cnc3c(N)nc(C#CC(C)O)nc32)C(O)C1O (stereo not given) [5-[6-Amino-2-(3-hydroxy-but-1-ynyl)-purin-9-yl]-3,4-dihydroxy-tetrahydro-furan-2-carboxylic acid ethylamide]
2.1 nM	2 nM	0.75 nM	CCNC(=O)C1OC(n2cnc3c(N)nc(C#C[C@H](O)c4ccccc4)nc32)C(O)C1O (stereo partly drawn) [6S, (S)-PHPNECA]
2.7 nM	3.1 nM	0.42 nM	CCNC(=O)C1OC(n2cnc3c(N)nc(C#CC(O)c4ccccc4)nc32)C(O)C1O (stereo not given) [R,S-PHPNECA]
